Source: patent US6737383B1, “Herbicidal oxadiazolidines” (priority 1999, dated 2004)

Columns and labels:
blackgrass = experiment: Test B pre/postemergence blackgrass; assay type: in vivo, Alopecurus myosuroides
In short: (§1)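 Test chemicals in a non-phytotoxic solvent mixture with surfactant were sprayed preemergence onto planted seeds and postemergence onto plants 2 to 18 cm tall (1- to 4-leaf stage). After twelve to sixteen days in a greenhouse, injury was visually rated against untreated controls from 0 (no effect) to 10 (complete control).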

surinam grass = experiment: Test B pre/postemergence surinam grass; assay type: in vivo, Brachiaria decumbens
In short: as §1

sugar beet = experiment: Test B pre/postemergence sugar beet; assay type: in vivo, Beta vulgaris
In short: as §1

cocklebur = experiment: Test B pre/postemergence cocklebur; assay type: in vivo, Xanthium strumarium
In short: as §1

pigweed = experiment: Test B pre/postemergence pigweed; assay type: in vivo, Amaranthus retroflexus
In short: as §1

soybean = experiment: Test B pre/postemergence soybean; assay type: in vivo, Glycine max
In short: as §1

purple nutsedge = experiment: Test B pre/postemergence purple nutsedge; assay type: in vivo, Cyperus rotundus
In short: as §1

crabgrass = experiment: Test B pre/postemergence crabgrass; assay type: in vivo, Digitaria sanguinalis
In short: as §1

wild oat = experiment: Test B pre/postemergence wild oat; assay type: in vivo, Avena fatua
In short: as §1

rape = experiment: Test B pre/postemergence rape; assay type: in vivo, Brassica napus
In short: as §1

velvetleaf = experiment: Test B pre/postemergence velvetleaf; assay type: in vivo, Abutilon theophrasti
In short: as §1

morningglory = experiment: Test B pre/postemergence morningglory; assay type: in vivo, Ipomoea hederacea
In short: as §1

bedstraw = experiment: Test B pre/postemergence bedstraw; assay type: in vivo, Galium aparine; conditions: Preemergence; for Bedstraw plant response rating: scale 0 to 10, 0 is no effect, 10 is complete control
In short: as §1

corn = experiment: Test B pre/postemergence corn; assay type: in vivo, Zea mays
In short: as §1

wheat = experiment: Test B pre/postemergence wheat; assay type: in vivo, Triticum aestivum
In short: as §1

giant foxtail = experiment: Test B pre/postemergence giant foxtail; assay type: in vivo, Setaria faberii
In short: as §1

[1] = Postemergence, Rate 62 g/ha, scale of 0 to 10, 0 is no effect, 10 is complete control
[2] = Postemergence, Rate 125 g/ha, scale 0 to 10, 0 is no effect, 10 is complete control
[3] = Postemergence, Rate 250 g/ha, scale 0 to 10
[4] = Postemergence, Rate 500 g/ha, scale 0 to 10, 0 is no effect, 10 is complete control
[5] = Preemergence, Rate 62 g/ha, scale of 0 to 10 where 0 is no effect and 10 is complete control
[6] = Preemergence, Rate 125 g/ha, scale 0 to 10, 0 is no effect, 10 is complete control
[7] = Preemergence, Rate 250 g/ha, scale 0 to 10, 0 is no effect, 10 is complete control
[8] = Preemergence, Rate 500 g/ha, scale of 0 to 10 where 0 is no effect and 10 is complete control

Cc1noc(C)c1Cn1c(=O)on(C(=O)N(c2ccc(F)cc2F)C(C)C)c1=O [Compound 510]
Blackgrass plant response rating (blackgrass; [1]): 5 | Blackgrass plant response rating (blackgrass; [2]): 5 | Blackgrass plant response rating (blackgrass; [3]): 5 | Plant response rating, Blackgrass (blackgrass; [4]): 6 | Plant response rating, Blackgrass (blackgrass; [5]): 6 | Blackgrass plant response rating (blackgrass; [6]): 6 | Blackgrass plant response rating (blackgrass; [7]): 7 | Blackgrass plant response rating (blackgrass; [8]): 8 | B. signalgrass plant response rating (surinam grass; [1]): 2 | B. signalgrass plant response rating (surinam grass; [2]): 4 | B. signalgrass plant response rating (surinam grass; Postemergence, Rate 250 g/ha, scale 0 to 10, 0 no effect, 10 complete control): 4 | Plant response rating, B. signalgrass (surinam grass; [4]): 6 | Plant response rating, B. signalgrass (surinam grass; [5]): 7 | B. signalgrass plant response rating (surinam grass; [6]): 7 | B. signalgrass plant response rating (surinam grass; [7]): 8 | B. signalgrass plant response rating (surinam grass; Preemergence, Rate 500 g/ha, scale 0 to 10, 0 is no effect, 10 is complete control): 9 | Sugarbeets plant response rating (sugar beet; [1]): 2 | Sugarbeets plant response rating (sugar beet; [2]): 4 | Plant response rating, Sugarbeets (sugar beet; [4]): 8 | Plant response rating, Sugarbeets (sugar beet; [5]): 0 | Sugarbeets plant response rating (sugar beet; [6]): 0 | Sugarbeets plant response rating (sugar beet; [8]): 7 | Cocklebur plant response rating (cocklebur; [1]): 3 | Cocklebur plant response rating (cocklebur; [2]): 3 | Cocklebur plant response rating (cocklebur; [3]): 4 | Plant response rating, Cocklebur (cocklebur; [4]): 4 | Plant response rating, Cocklebur (cocklebur; [5]): 0 | Cocklebur plant response rating (cocklebur; [6]): 0 | Cocklebur plant response rating (cocklebur; [8]): 0 | Redroot pigweed plant response rating (pigweed; [1]): 7 | Redroot pigweed plant response rating (pigweed; [2]): 7 | Plant response rating, Redroot pigweed (pigweed; [5]): 7 | Redroot pigweed plant response rating (pigweed; [6]): 9 | Redroot pigweed plant response rating (pigweed; [8]): 10 | Soybean plant response rating (soybean; [1]): 4 | Soybean plant response rating (soybean; [2]): 7 | Plant response rating, Soybean (soybean; [4]): 8 | Plant response rating, Soybean (soybean; [5]): 0 | Soybean plant response rating (soybean; [6]): 0 | Soybean plant response rating (soybean; [8]): 0 | Nutsedge plant response rating (purple nutsedge; [2]): 0 | Plant response rating, Nutsedge (purple nutsedge; [4]): 0 | Plant response rating, Nutsedge (purple nutsedge; [5]): 0 | Nutsedge plant response rating (purple nutsedge; [6]): 0 | Nutsedge plant response rating (purple nutsedge; [8]): 0 | Crabgrass plant response rating (crabgrass; [1]): 3 | Crabgrass plant response rating (crabgrass; [2]): 8 | Crabgrass plant response rating (crabgrass; [3]): 8 | Plant response rating, Crabgrass (crabgrass; [4]): 9 | Plant response rating, Crabgrass (crabgrass; [5]): 5 | Crabgrass plant response rating (crabgrass; [6]): 9 | Crabgrass plant response rating (crabgrass; [8]): 9 | Wild oats plant response rating (wild oat; [1]): 0 | Wild oats plant response rating (wild oat; [2]): 0 | Plant response rating, Wild oats (wild oat; [4]): 5 | Plant response rating, Wild oats (wild oat; [5]): 4 | Wild oats plant response rating (wild oat; [6]): 6 | Wild oats plant response rating (wild oat; [8]): 7 | Rape plant response rating (rape; [1]): 1 | Rape plant response rating (rape; [2]): 4 | Plant response rating, Rape (rape; [4]): 9 | Plant response rating, Rape (rape; [5]): 2 | Rape plant response rating (rape; [6]): 5 | Rape plant response rating (rape; [8]): 9 | Velvetleaf plant response rating (velvetleaf; [1]): 4 | Velvetleaf plant response rating (velvetleaf; [2]): 4 | Plant response rating, Velvetleaf (velvetleaf; [4]): 7 | Plant response rating, Velvetleaf (velvetleaf; [5]): 1 | Velvetleaf plant response rating (velvetleaf; [6]): 2 | Velvetleaf plant response rating (velvetleaf; [8]): 6 | Morningglory plant response rating (morningglory; [1]): 4 | Morningglory plant response rating (morningglory; [2]): 5 | Plant response rating, Morningglory (morningglory; [4]): 6 | Plant response rating, Morningglory (morningglory; [5]): 0 | Morningglory plant response rating (morningglory; [6]): 0 | Morningglory plant response rating (morningglory; [8]): 5 | Plant response rating, Bedstraw (bedstraw; Rate 62 g/ha, scale of 0 to 10 where 0 is no effect and 10 is complete control): 0 | Bedstraw plant response rating (bedstraw; Rate 125 g/ha): 0 | Bedstraw plant response rating (bedstraw; Rate 250 g/ha): 0 | Bedstraw plant response rating (bedstraw; Rate 500 g/ha): 4 | Corn plant response rating (corn; [1]): 0 | Corn plant response rating (corn; [2]): 0 | Corn plant response rating (corn; [3]): 0 | Plant response rating, Corn (corn; [4]): 0 | Plant response rating, Corn (corn; [5]): 0 | Corn plant response rating (corn; [6]): 0 | Corn plant response rating (corn; [8]): 5 | Wheat plant response rating (wheat; [1]): 0 | Wheat plant response rating (wheat; [2]): 0 | Plant response rating, Wheat (wheat; [4]): 3 | Plant response rating, Wheat (wheat; [5]): 0 | Wheat plant response rating (wheat; [6]): 0 | Wheat plant response rating (wheat; [8]): 0 | Giant foxtail plant response rating (giant foxtail; [1]): 4 | Giant foxtail plant response rating (giant foxtail; [2]): 6 | Plant response rating, Giant foxtail (giant foxtail; [4]): 9 | Plant response rating, Giant foxtail (giant foxtail; [5]): 9 | Giant foxtail plant response rating (giant foxtail; [6]): 9 | Giant foxtail plant response rating (giant foxtail; [8]): 10
